Drawing on PubChem BioAssay (NCI), this text covers GI50 and TGI for eight compounds.

Where “and” joins values, the source holds several entries; their conditions need not be identical. Equal values may be shown once.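 Results reflect a 48-hour exposure of cells in 96-well plates to compound at five concentrations. The concentration for 50% growth inhibition is given as GI50. At the TGI there is no net growth.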 Where only a bound is given, the exact number is not on record here.

Test systems include MALME-3M melanoma; U251 CNS; SR leukemia; OVCAR-5 ovarian; HCT-116 colon; UO-31 renal; EKVX NSCLC; HL-60(TB) leukemia; SW-620 colon; LOX IMVI melanoma.
What all share (assay): NCI tumour cell line growth inhibition, 48 h

Consider `CN1CCN(CCCn2c3c(sc4ncccc43)c(=O)n3nnc(-c4ccccc4)c23)CC1`, for which the GI50 with MALME-3M melanoma was 6.38 µM; with U251 CNS it was 1.86 µM; with SR leukemia, 0.241 µM; in the experiment with OVCAR-5 ovarian, 6.89 µM; in the experiment with HCT-116 colon, 1.72 µM; in the experiment with UO-31 renal, 0.802 µM. In addition, the GI50 in the experiment with EKVX NSCLC was 2.08 µM; in the experiment with HL-60(TB) leukemia it was 1.48 µM; with SW-620 colon, 1.52 µM; with LOX IMVI melanoma, 1.39 µM. Further, the TGI was 11.8 µM in the experiment on MALME-3M melanoma; 3.3 µM in the experiment with U251 CNS; 0.603 µM in the experiment on SR leukemia; 15.9 µM in the experiment on OVCAR-5 ovarian; 3.31 µM with HCT-116 colon; 2.42 µM with UO-31 renal. In addition, the TGI in the experiment with EKVX NSCLC is 5.58 µM; in the experiment on HL-60(TB) leukemia, 3.47 µM; in the experiment on SW-620 colon, 3.25 µM; in the experiment on LOX IMVI melanoma it was 2.75 µM.

Regarding `Cn1cc(-c2nc(-c3c[nH]c4ccccc34)cs2)c2cccnc21`, the GI50 is 0.745 µM in the experiment with MALME-3M melanoma; 0.432 µM with U251 CNS; 0.167 µM with SR leukemia; 2.11 µM in the experiment with OVCAR-5 ovarian; 0.364 µM in the experiment on HCT-116 colon; 0.649 µM in the experiment on UO-31 renal. Also, the GI50 in the experiment with EKVX NSCLC was 0.907 µM; in the experiment with HL-60(TB) leukemia it was 0.317 µM; with SW-620 colon, 0.221 µM; in the experiment with LOX IMVI melanoma it was 0.628 µM. Further, the TGI in the experiment on MALME-3M melanoma is 86.6 µM; in the experiment on U251 CNS, over 53.9 µM; in the experiment on SR leukemia, over 79.4 µM; in the experiment on OVCAR-5 ovarian, over 100 µM; with HCT-116 colon it was over 47.2 µM; with UO-31 renal it was over 100 µM. Besides, the TGI in the experiment on EKVX NSCLC was over 100 µM; with HL-60(TB) leukemia it was over 72.4 µM; in the experiment on SW-620 colon, over 100 µM; with LOX IMVI melanoma, over 100 µM.

Consider `Nc1[nH]c(=S)[nH]c(=O)c1N=Nc1c(Br)cc(S(N)(=O)=O)cc1Br`, for which the TGI with MALME-3M melanoma, with U251 CNS, in the experiment on SR leukemia, in the experiment on OVCAR-5 ovarian, in the experiment on HCT-116 colon and with UO-31 renal was over 100 µM each time. Also, the TGI in the experiment with EKVX NSCLC, in the experiment with HL-60(TB) leukemia, in the experiment on SW-620 colon and in the experiment on LOX IMVI melanoma was over 100 µM each time.

Turning to `CC(=O)OCc1cc[c]([Hg][Cl])o1`, the GI50 in the experiment on MALME-3M melanoma is 1.6 µM; in the experiment with U251 CNS, 2 µM; in the experiment on SR leukemia, 0.619 µM; in the experiment with OVCAR-5 ovarian, 11.8 µM; in the experiment with HCT-116 colon it was 10.1 µM; with UO-31 renal, 1.82 µM. For the same compound, the GI50 in the experiment on EKVX NSCLC was 12.4 µM; in the experiment with HL-60(TB) leukemia it was 2.46 µM; in the experiment on SW-620 colon it was 1.6 µM; in the experiment on LOX IMVI melanoma, 1.96 µM. For the same compound, the TGI in the experiment on MALME-3M melanoma came to 3.27 µM; with U251 CNS it was 5.02 µM; in the experiment on SR leukemia, 12.3 µM; in the experiment on OVCAR-5 ovarian, 30.2 µM; in the experiment with HCT-116 colon it was 24.3 µM; with UO-31 renal it was 3.45 µM. Further, the TGI in the experiment with EKVX NSCLC was found to be 28.2 µM; with HL-60(TB) leukemia, 6.28 µM; in the experiment on SW-620 colon, 3.82 µM; in the experiment with LOX IMVI melanoma, 4.96 µM.

In the case of `Cn1cc(-c2[nH]c3cc(NC(=O)[C@H](N)C4CCCCC4)cc4c3c2C=NNC4=O)cn1`, the GI50 was 2.22 µM and 0.517 µM in the experiment with MALME-3M melanoma; 0.418 µM and 0.415 µM in the experiment with U251 CNS; 0.0566 µM and 0.12 µM in the experiment with SR leukemia; 1.28 µM and 0.644 µM in the experiment on OVCAR-5 ovarian; 0.399 µM and 0.561 µM in the experiment with HCT-116 colon; 2.54 µM and 2.35 µM in the experiment on UO-31 renal. The GI50 with EKVX NSCLC was 6.83 µM and 5.99 µM; with HL-60(TB) leukemia, 0.292 µM and 0.296 µM; with SW-620 colon, 0.53 µM and 0.829 µM; in the experiment with LOX IMVI melanoma, 0.305 µM and 0.268 µM. The TGI was 24.7 µM and > 10 µM with MALME-3M melanoma; 12.9 µM and > 10 µM in the experiment on U251 CNS; 0.622 µM and 1.1 µM with SR leukemia; 15.8 µM and > 10 µM in the experiment with OVCAR-5 ovarian; 10.9 µM and > 10 µM in the experiment on HCT-116 colon; 9.07 µM and > 10 µM in the experiment with UO-31 renal. Also, the TGI in the experiment on EKVX NSCLC was 21.8 µM and > 10 µM; in the experiment on HL-60(TB) leukemia it was 0.775 µM and > 4.21 µM; in the experiment on SW-620 colon it was 13.6 µM and > 10 µM; in the experiment on LOX IMVI melanoma it was 3.52 µM and 1.66 µM.

As for `O=S(=O)(O)c1ccc([Se][Se]c2ccc(S(=O)(=O)O)cc2)cc1`, the TGI was over 100 µM in the experiment on MALME-3M melanoma; over 100 µM in the experiment with U251 CNS; 96.6 µM in the experiment with SR leukemia; over 100 µM in the experiment on OVCAR-5 ovarian; over 100 µM in the experiment on HCT-116 colon; over 100 µM with UO-31 renal. Moreover, the TGI in the experiment with EKVX NSCLC, in the experiment with HL-60(TB) leukemia, with SW-620 colon and in the experiment with LOX IMVI melanoma was over 100 µM each time.

Turning to `OC(CBr)C(O)C(O)C(O)CBr` (configuration not stated), the TGI in the experiment on MALME-3M melanoma, in the experiment on U251 CNS, in the experiment with SR leukemia, with OVCAR-5 ovarian, with HCT-116 colon and in the experiment with UO-31 renal was over 100 µM throughout. Moreover, the TGI with EKVX NSCLC was over 100 µM; with HL-60(TB) leukemia, over 67.5 µM; with SW-620 colon it was over 100 µM; in the experiment with LOX IMVI melanoma, over 100 µM. Moreover, the GI50 in the experiment on HCT-116 colon is 37.3 µM and > 100 µM; with UO-31 renal, over 100 µM.

For the compound `Clc1cc2ns[s+]c2cc1Cl`, the TGI in the experiment on MALME-3M melanoma is over 100 µM; in the experiment with U251 CNS it was over 100 µM; in the experiment with SR leukemia, over 100 µM; with OVCAR-5 ovarian, over 100 µM; in the experiment with HCT-116 colon it was over 100 µM; in the experiment with UO-31 renal, over 91.7 µM. For the same compound, the TGI in the experiment on EKVX NSCLC was over 100 µM; in the experiment on HL-60(TB) leukemia, over 87.2 µM; in the experiment with SW-620 colon, over 100 µM; in the experiment with LOX IMVI melanoma it was over 100 µM.
